According to the NIST ThermoML archive (doi:10.1016/j.tca.2007.05.014):

Experiments:
[1] = Crystal; Adiabatic calorimetry
[2] = Molar enthalpy of transition or fusion; conditions: Crystal; Adiabatic calorimetry
[3] = molar heat capacity at constant pressure; conditions: 101.33 kPa, Vacuum adiabatic calorimetry

c1ccc(CSSCc2ccccc2)cc1 [1,4-diphenyl-2,3-dithiabutane]
Conditions	Molar enthalpy of transition or fusion [kcal/mol]	Triple point temperature [K]
[1]	–	341.72
[2]	10.75	–

[3]
Conditions	molar heat capacity at constant pressure [J/K/mol]
80 K, Crystal	108.82
80.3 K, Crystal	108.33
84.06 K, Crystal	111.79
85 K, Crystal	111.44
87.01 K, Crystal	113.48
90 K, Crystal	116.01
90.01 K, Crystal	116.34
92.93 K, Crystal	118.76
95 K, Crystal	122.1
95.91 K, Crystal	122.02
99.41 K, Crystal	127.8
100 K, Crystal	129.33
103.24 K, Crystal	135.01
105 K, Crystal	137.39
106.95 K, Crystal	141.28
110 K, Crystal	145.99
110.69 K, Crystal	147.39
114.47 K, Crystal	153.91
115 K, Crystal	154.9
118.16 K, Crystal	160.1
120 K, Crystal	163.94
121.87 K, Crystal	169.57
125 K, Crystal	172.98
125.68 K, Crystal	176.87
129.35 K, Crystal	179.77
130 K, Crystal	181.89
132.96 K, Crystal	185.92
135 K, Crystal	190.59
136.61 K, Crystal	192.1
140 K, Crystal	199.02
140.35 K, Crystal	197.02
144.38 K, Crystal	205.28
145 K, Crystal	207.16
147.99 K, Crystal	211.7
150 K, Crystal	214.97
151.7 K, Crystal	217.62
155 K, Crystal	222.48
155.35 K, Crystal	222.51
158.92 K, Crystal	228.58
160 K, Crystal	229.68
162.44 K, Crystal	233.74
165 K, Crystal	236.6
165.91 K, Crystal	238.97
169.42 K, Crystal	243.63
170 K, Crystal	243.29
172.99 K, Crystal	248.31
175 K, Crystal	249.78
176.5 K, Crystal	252.64
179.96 K, Crystal	257.05
180 K, Crystal	256.1
183.38 K, Crystal	260.66
185 K, Crystal	262.31
186.84 K, Crystal	265.34
190 K, Crystal	268.46
190.36 K, Crystal	269.4
193.83 K, Crystal	273.35
195 K, Crystal	274.58
197.26 K, Crystal	277.29
200 K, Crystal	280.71
200.65 K, Crystal	280.28
204 K, Crystal	284.27
205 K, Crystal	286.91
207.4 K, Crystal	288.01
210 K, Crystal	293.18
210.85 K, Crystal	291.95
214.25 K, Crystal	296.05
215 K, Crystal	299.57
217.6 K, Crystal	300.68
220 K, Crystal	306.1
220.9 K, Crystal	305.02
224.17 K, Crystal	310.55
225 K, Crystal	312.77
227.41 K, Crystal	316.71
230 K, Crystal	319.61
230.64 K, Crystal	324.45
234.1 K, Crystal	331.98
235 K, Crystal	326.59
237.58 K, Crystal	333.36
240 K, Crystal	333.73
240.9 K, Crystal	338.86
244.3 K, Crystal	341.63
245 K, Crystal	341.01
247.7 K, Crystal	342.44
250 K, Crystal	348.41
251 K, Crystal	347.57
254.37 K, Crystal	353.48
255 K, Crystal	355.91
257.79 K, Crystal	359.5
260 K, Crystal	363.48
261.22 K, Crystal	363.54
264.69 K, Crystal	369.67
265 K, Crystal	371.1
268.17 K, Crystal	374.81
270 K, Crystal	378.73
271.64 K, Crystal	381.1
275 K, Crystal	386.35
275.11 K, Crystal	386.26
278.65 K, Crystal	391.99
280 K, Crystal	393.93
282.26 K, Crystal	396.6
285 K, Crystal	401.44
285.84 K, Crystal	402.1
289.39 K, Crystal	410.38
290 K, Crystal	408.86
292.9 K, Crystal	417.2
295 K, Crystal	416.2
296.45 K, Crystal	417.2
298.15 K, Crystal	420.77
299.98 K, Crystal	422.24
300 K, Crystal	423.44
303 K, Crystal	427.75
303.49 K, Crystal	427.76
307 K, Crystal	437.99
310.49 K, Crystal	432.45
313.97 K, Crystal	443.61
317.47 K, Crystal	440.2
320.92 K, Crystal	443.39
324.15 K, Crystal	448.33
327.24 K, Crystal	479.87
330.68 K, Crystal	494.5
334.08 K, Crystal	565.94
337.09 K, Crystal	842.59
339.29 K, Crystal	2123.3
340.75 K, Crystal	6689.9
344.92 K, Liquid	1138.3
350.93 K, Liquid	545.43
355 K, Liquid	545.41
355.68 K, Liquid	550.14
359.31 K, Liquid	554.64
360 K, Liquid	555.11
362.99 K, Liquid	559.12
365 K, Liquid	561.67
366.65 K, Liquid	562.71
370 K, Liquid	564.76
370.29 K, Liquid	565.83
373.91 K, Liquid	569.68
375 K, Liquid	580.96
377.39 K, Liquid	643.17
